The target of one series is T1, DPP-IV (Homo sapiens, UniProt P27487).
T1 construct: purchased Sigma-Aldrich
As to the kind of experiment: DPP-IV resistant assay. Format: in vitro ADME. As to the method:
20 μM of peptides of the present invention (Sequence IDs—01, 02, 03, 04, 05, 06, 11, 12 and 13) were incubated with 60 mU/2 ml of DPP-IV (Sigma-Aldrich) enzyme at room temperature (22-24° C.) in 20 mM Tris HCl buffer, pH 8.0. The aliquots were analyzed for the amount of undegraded peptide concentration at different time intervals by RP-HPLC. The peak area integration was used to determine the amount of undegraded peptide (U.S. Pat. No. 7,067,488). T1/2 of each peptide was determined from the graph plotted between peak area of undegraded peptide vs. time. The peak area of DPP-IV untreated peptide in above mentioned buffer condition of same concentration was considered as time zero. […]

A further series deals with T2, NEP 24.11 (Homo sapiens, UniProt P08473).
T2 construct: purchased Calbiochem
As to the kind of experiment: NEP 24.11 resistant (degradation) assay. It is filed as in vitro ADME. As to conditions: pH 7.4. Here is the method:
The aliquots were analyzed for the amount of undegraded peptide concentration at different time intervals using RP-HPLC by peak area integration. T1/2 of each peptide was determined from the graph plotted between peak area of undegraded peptide vs time.

The next series deals with C57/BL6 male mice. Briefly: OGTT and dose response effect of peptide of Seq ID No. 01. It is filed as in vivo. As to the method:
C57/BL6 male mice were fasted for 6 hrs. After 6 h of fasting, blood was drawn from a small tail clip for glucose level determination. […] Glucose was given orally at the ratio 1 mg/g body wt. per mouse 5 min after the administration of peptide. Blood glucose levels were determined at different time intervals i.e. at 0, 15, 30, 60, and 120 min during a period of 2 hours using a portable glucometer. The saline solution was used as control negative in the experiment.

In the next series the test system is db/db mice. Briefly: Anti-diabetic activity of peptide in db/db mice. Format: in vivo. To be noted: 25 nmol/kg daily i.p., versus saline. Here is the method:
Animals of two different age groups (6-8 and 10-12 weeks old db/db mice) were included in this study. 6-8 week old mice were chosen as pre-diabetic mice and 10-12 week old as the full-diabetic mice. The preventive effect of peptide of Seq. ID No. 01 on the progression of diabetes in pre-diabetic mice was examined. The effect of peptide of Seq. ID No. 01 in full-diabetic mice was also studied. […] Blood glucose levels were measured on day 0, 14, 28 and 42. Test peptide of Seq ID No. 01 was injected i.p. according to body weight and the feed was removed. Mice were not fed till 4 hrs following injection of the peptide on the day of blood sample testing. Normal chow was given after the 4 hr time point. […] Test compound/vehicle (saline solution i.e. control negative) to be administered at 0 hr.

T1 sequence (P27487 whole entry, species assumed): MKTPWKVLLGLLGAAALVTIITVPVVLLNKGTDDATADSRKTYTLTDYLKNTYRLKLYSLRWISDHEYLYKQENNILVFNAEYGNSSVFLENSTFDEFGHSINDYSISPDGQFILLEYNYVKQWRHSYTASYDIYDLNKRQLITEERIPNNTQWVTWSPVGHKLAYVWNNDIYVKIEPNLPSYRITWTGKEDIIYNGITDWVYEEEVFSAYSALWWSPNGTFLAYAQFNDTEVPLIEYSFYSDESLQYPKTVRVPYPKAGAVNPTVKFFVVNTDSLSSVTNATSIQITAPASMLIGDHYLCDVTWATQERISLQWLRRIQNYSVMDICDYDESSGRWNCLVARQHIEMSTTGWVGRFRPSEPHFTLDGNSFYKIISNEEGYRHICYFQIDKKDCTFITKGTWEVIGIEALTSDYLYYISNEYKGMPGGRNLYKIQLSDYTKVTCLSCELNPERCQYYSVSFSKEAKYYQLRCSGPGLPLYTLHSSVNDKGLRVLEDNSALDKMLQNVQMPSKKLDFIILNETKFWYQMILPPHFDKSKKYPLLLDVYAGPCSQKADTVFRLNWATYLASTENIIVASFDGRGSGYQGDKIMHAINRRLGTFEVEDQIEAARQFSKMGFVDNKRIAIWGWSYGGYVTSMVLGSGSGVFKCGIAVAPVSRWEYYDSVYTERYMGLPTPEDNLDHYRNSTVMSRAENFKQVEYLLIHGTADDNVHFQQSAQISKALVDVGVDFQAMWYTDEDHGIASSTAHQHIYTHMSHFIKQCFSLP
T2 sequence (P08473 whole entry): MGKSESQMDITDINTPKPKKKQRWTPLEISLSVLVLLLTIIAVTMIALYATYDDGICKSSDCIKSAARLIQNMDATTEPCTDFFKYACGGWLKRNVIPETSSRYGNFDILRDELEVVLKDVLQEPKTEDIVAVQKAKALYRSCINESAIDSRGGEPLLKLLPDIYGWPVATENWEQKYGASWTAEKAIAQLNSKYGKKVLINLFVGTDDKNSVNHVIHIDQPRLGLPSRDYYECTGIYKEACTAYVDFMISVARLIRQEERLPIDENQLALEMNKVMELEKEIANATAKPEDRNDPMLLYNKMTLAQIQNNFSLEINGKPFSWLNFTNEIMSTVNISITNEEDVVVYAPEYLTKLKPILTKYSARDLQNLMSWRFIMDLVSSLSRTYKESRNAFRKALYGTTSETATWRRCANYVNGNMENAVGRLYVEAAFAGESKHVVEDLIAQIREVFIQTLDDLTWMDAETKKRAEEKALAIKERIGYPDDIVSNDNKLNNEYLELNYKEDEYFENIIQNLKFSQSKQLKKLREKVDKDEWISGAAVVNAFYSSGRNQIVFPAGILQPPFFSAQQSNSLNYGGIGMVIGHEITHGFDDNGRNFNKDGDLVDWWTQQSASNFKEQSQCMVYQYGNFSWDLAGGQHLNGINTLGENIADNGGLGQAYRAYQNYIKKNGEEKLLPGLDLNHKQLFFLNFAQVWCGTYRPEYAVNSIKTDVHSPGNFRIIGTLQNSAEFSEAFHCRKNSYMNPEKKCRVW

As to `CC[C@H](C)[C@H](NC(=O)[C@H](Cc1ccccc1)NC(=O)[C@H](CCC(=O)O)NC(=O)[C@H](CCCCN)NC(=O)[C@H](C)NC(=O)[C@H](C)NC(=O)[C@H](CCC(N)=O)NC(=O)CNC(=O)[C@H](CCC(=O)O)NC(=O)[C@H](CC(C)C)NC(=O)[C@H](Cc1ccc(O)cc1)NC(=O)[C@H](CO)NC(=O)[C@H](CO)NC(=O)[C@@H](NC(=O)[C@H](CC(=O)O)NC(=O)[C@H](CO)NC(=O)[C@@H](NC(=O)[C@H](Cc1ccccc1)NC(=O)[C@@H](NC(=O)CNC(=O)[C@H](CCC(=O)O)NC(=O)c1ccc(CNC(=O)[C@@H](N)Cc2c[nH]cn2)o1)[C@@H](C)O)[C@@H](C)O)C(C)C)C(=O)N[C@@H](C)C(=O)N[C@@H](Cc1c[nH]c2ccccc12)C(=O)N[C@@H](CC(C)C)C(=O)N[C@H](C(=O)N[C@@H](CCCCN)C(=O)NCC(=O)N[C@@H](CCCNC(=N)N)C(=O)NCC(N)=O)C(C)C` [Seq ID No. 01], the “Percentage degradation in hrs” value at DPP-IV was 25%. The half-life (usually the time in which the quantity being followed falls by half) at 20 μM is greater than 72 h at DPP-IV (pH 8) and 29 h at NEP 24.11 (buffer). The molecule further displayed a metabolised at 54 h, 20 μM on NEP 24.11 (isolated enzyme neprilysin) of 92.6%. Further, the optimum dose with C57/BL6 male mice (OGTT dose response, intraperitoneally) is 25 nmol/kg. For the same molecule, the “dose response, percent reduction in blood glucose (AUC0-60)” value in the series on C57/BL6 male mice (OGTT, 100, 25, 10, 5 and 1 nmol/kg intraperitoneally, FIG. 11) was “no significant difference between 100 nmol and 25 nmol doses”. Moreover, the “blood glucose level, progression of diabetes” value with db/db mice (6-8 weeks old db/db mice, 42 days) is on record as “delayed the progression of diabetes as compared to control negative group”. Further, the “blood glucose level, activity versus control negative” value in the series with db/db mice (10-12 weeks old db/db mice, 28 days) is “better activity as compared to control negative group”.

Values taken from patent US20110269680A1 (PANACEA BIOTEC LIMITED, priority 2008, published 2011).
